The structures appear in SMILES notation.

A short description of data set [1]: Single bolus dose toxicity in mice. In kind it is in vivo. Particulars: mouse, in vivo, ip. As to the method: (§1) HI-P131 was not toxic to mice at intraperitoneal single bolus doses ranging from 0.5 mg/kg to 250 mg/kg. […] Thus, the maximum tolerated dose (MlD) of HI-P131 was not reached at 250 mg/kg. We next examined the pharmacokinetic features of HI-P131 in mice. A two-compartment pharmacokinetic model was fit to the pharmacokinetics data obtained following the intravenous (i.v.) or intraperitoneal (i.p.) administration of a single non-toxic 12.5 mg/kg bolus dose of HI-P131.

The next data set relates to mice. As to the kind of experiment: Single bolus dose toxicity in mice. Format: in vivo. As to the method: as §1
For data set [2], the system named is MOLT-3 human leukemia cells. As to the kind of experiment: MTT cytotoxicity assay, MOLT-3. In kind it is cell-based. Particulars: Homo sapiens, MOLT-3, Table 4, OH substituted, 24–36 hours. The gist of the method: (§2)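 Cells pre-grown 36 h at 37 °C, then exposed to quinazoline compounds (0.1–250 μM) for 24–36 h at 37 °C, 5% CO2, in triplicate wells. MTT (0.5 mg/ml final) added 4 h; formazan absorbance at 540 nm (ref 690 nm) converted to cell number via standard curves; IC50 by non-linear regression.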
(In general: Tetrazolium assays rely on reduction of a dye to a coloured formazan, in cell work by metabolically active cells.)

Data set [3] concerns U373 human brain tumor cells. As to the kind of experiment: MTT cytotoxicity assay, U373. Format: cell-based. Particulars: Homo sapiens, U373 MG, Table 4, OH substituted, 24–36 hours. As to the method:
The cytotoxicity assay of various compounds against human tumor cell lines was performed using the MTT (3-[4,5-dimethylthiazol-2-yl]-2,5-diphenyl tetrazolium bromide) assay (Boehringer Mannheim Corp., Indianapolis, Ind.). Briefly, exponentially growing tumor cells were seeded into a 96-well plate at a density of 2.5×10^4 cells/well and incubated for 36 hours at 37° C. prior to drug exposure. On the day of treatment, culture medium was carefully aspirated from the wells and replaced with fresh medium containing the quinazoline compounds at concentrations ranging from 0.1 to 250 μM. Triplicate wells were used for each treatment.
Human cell lines were obtained from American Type Culture Collection (Rockville, Md.) and maintained as a continuous cell line in Dulbecco's modified Eagles' medium supplemented with 10% fetal bovine serum and antibiotics. Cells used in this study include human leukemia cells (NALM-6 and MOLT-3), human breast cancer cells ([…]), human prostate cancer cells (PC3), and human brain tumor cells (U373).
The cells were incubated with the various compounds for 24–36 hours at 37° C. in a humidified 5% CO2 atmosphere. To each well, 10 μl of MTT (0.5 mg/ml final concentration) was added and the plates were incubated at 37° C. for 4 hours to allow MTT to form formazan crystals by reacting with metabolically active cells. The formazan crystals were solubilized overnight at 37° C. in a solution containing 10% SDS in 0.01 M HCl. The absorbance of each well was measured in a microplate reader (Labsystems) at 540 nm and a reference wavelength of 690 nm. To translate the OD 540 values into the number of live cells in each well, the OD 540 values were compared to those on standard OD 540—versus—cell number curves generated for each cell line. The percent survival was calculated using the formula:
[formula] The IC50 values were calculated by non-linear regression analysis. Detection of Apoptosis

Data set [4] is described as follows: Pharmacokinetic study in mice. In kind it is in vivo. Particulars: mouse, plasma, iv, single 12.5 mg/kg bolus, two-compartment model, read-out: Estimated maximum plasma concentration (Cmax). Here is the method: In pharmacokinetic studies, mice were injected either intravenously (i.v.) via the tail vein or intraperitoneally (i.p.) with a bolus dose of 300 μg/mouse (˜12.5 mg/kg=34 μmols/kg) of HI-P131. Blood samples were obtained from the ocular venous plexus by retroorbital venupuncture prior to and at 3 minutes, 5 minutes, 10 minutes, 15 minutes, 30 minutes, 45 minutes and 1 hour, 2 hours, 4 hours, and 8 hours after administration of HI-P 131. All collected blood samples were heparinized and centrifuged at 7,000 xg for 10 minutes in a microcentrifuge to obtain plasma. The plasma samples were stored at −20° C. until analysis. Aliquots of plasma were used for extraction and HPLC analysis. […] The area under the concentration time curve (AUC) was calculated by the trapezoidal rule between first (0 h) and last sampling time plus C/k, where C is the concentration of last sampling and k is the elimination rate constant. Systemic clearance (CL) was determined by dividing the dose by the AUC. The apparent volume of distribution at steady-state was calculated using the following equation, Vss=Dose·AUMC/(AUC)^2. […]
A highly sensitive quantitative HPLC detection method (Chen et al., 1998, J. Chromatography B (Biomedical sciences), in press) was used to determine the pharmocokinetics of HI-P131. […]

For data set [5], the system named is NALM-6 human leukemia cells. Kind of data set: MTT cytotoxicity assay, NALM-6. Format: cell-based. Particulars: Homo sapiens, NALM-6, Table 4, OH substituted, 24–36 hours. The procedure, abridged: as §2
In data set [6] the test system is BT20 human breast cancer cells. As to the kind of experiment: MTT cytotoxicity assay, BT20. Format: cell-based. Particulars: Homo sapiens, BT-20, Table 4, OH substituted, 24–36 hours. The procedure, abridged:
as §2

What is called IC50 is the midpoint of a concentration-inhibition curve. In data set [1], `COc1cc2ncnc(Nc3ccc(O)cc3)c2cc1OC` [HI-P131, 4-(4′-Hydroxylphenyl)-amino-6,7-dimethoxyquinazoline] showed an MTD at 30 day of over 250 mg/kg. Moreover, the “Side effects or death of toxicity” value with mice (50 mice, 30 day observation period) is reported as “None of the 50 mice treated with HI-P131 experienced side effects or died of toxicity”. Moreover, the “Histopathologic lesions in organs” value in the data set with mice (mouse, in vivo) is “No histopathologic lesions”. The Toxicity to mice result with mice (mouse, in vivo) is given as “not toxic”. Besides, the IC50 is 38.6 µM in data set [2], over 250 µM in data set [3], 32.1 µM in data set [5] and over 250 µM in data set [6]. Besides, the Cmax in data set [4] was 85.6 µM.

(Values after patent publication US7038049B2, “Haloanilino quinazolines and therapeutic use thereof” (Parker Hughes Institute, priority 1999, dated 2006).)
